Assays:
[1] = biological target: CDK1B (Homo sapiens, UniProt P06493); assay: Kinase assay CDK1B (radiometric profiling service); assay type: biochemical; conditions: for Ki: apparent Ki calculated from Km (ATP) and IC50, read-out: CDK inhibition Ki CDK1B
Procedure, shortened: (§1)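 IC50 (4-parameter fit) and apparent Ki from Km (ATP). CDK1B, CDK2A, CDK7H: outsourced radiometric. CDK4/D1: radiometric or ADP-Glo, RB-CTF substrate, 40 min at 37° C, ten concentrations from 10 μM down to 0.5 nM.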

[2] = test system: MOLM-13; assay: Cell viability assay, leukemia MOLM-13; assay type: cell-based; conditions: Homo sapiens, 72 h, read-out: Antiproliferative activity GI50 MOLM-13
Text: (§2) Compounds from Example 1 were subjected to a standard MTT (3-(4,5-dimethylthiazol-2-yl)-2,5-diphenyltetrazolium bromide) and resazurin assays on solid tumour cell lines and leukemia cell lines, respectively, as previously reported (Wang S et al., J Med Chem 47:1662-1675, 2004 and Diab S. et al. CheMedChem 9:962-972, 2014).

[3] = biological target: T1, CDK4D1 (Homo sapiens, UniProt P11802); assay: Kinase assay CDK4/D1 (radiometric or ADP Glo); assay type: biochemical; conditions: apparent Ki calculated from Km (ATP) and IC50; read-out: CDK inhibition Ki CDK4D1
T1 construct: purchased Eurofins Pharma Discovery or Reaction Biology Corporation (service)
T1 sequence (P11802 whole entry): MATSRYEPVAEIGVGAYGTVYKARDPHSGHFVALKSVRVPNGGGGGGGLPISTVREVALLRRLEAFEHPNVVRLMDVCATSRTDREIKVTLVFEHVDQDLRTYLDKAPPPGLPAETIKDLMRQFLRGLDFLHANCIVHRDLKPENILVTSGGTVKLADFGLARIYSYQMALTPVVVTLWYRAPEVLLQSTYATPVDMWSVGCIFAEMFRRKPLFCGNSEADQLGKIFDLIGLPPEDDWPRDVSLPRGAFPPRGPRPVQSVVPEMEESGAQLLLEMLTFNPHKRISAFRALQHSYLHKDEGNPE
T1 sequence (P24385 whole entry partner): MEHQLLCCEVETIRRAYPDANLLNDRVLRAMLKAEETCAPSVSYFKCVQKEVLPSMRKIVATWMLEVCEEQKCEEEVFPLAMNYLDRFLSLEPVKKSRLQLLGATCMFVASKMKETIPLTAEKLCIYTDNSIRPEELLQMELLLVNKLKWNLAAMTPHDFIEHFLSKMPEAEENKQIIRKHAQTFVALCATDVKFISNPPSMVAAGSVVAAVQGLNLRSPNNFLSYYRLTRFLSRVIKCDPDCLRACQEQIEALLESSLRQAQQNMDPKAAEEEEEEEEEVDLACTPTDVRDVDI
Procedure, shortened: as §1

[4] = test system: MDA-MB-453; assay: Cell viability assay (MTT, solid tumour cell line) MDA-MB-453; assay type: cell-based, human; conditions: Homo sapiens, MDA-MB-453, 72 h; read-out: Anti-proliferative activity GI50 MDA-MB-453
Text: as §2

[5] = biological target: CDK 2A (Homo sapiens, UniProt P24941); assay: Kinase assay CDK2A (radiometric profiling service); assay type: biochemical; conditions: for Ki: apparent Ki calculated from Km (ATP) and IC50, read-out: CDK inhibition Ki CDK 2A
Procedure, shortened: as §1

[6] = test system: MV4-11; assay: Cell viability assay (resazurin, leukemia cell line) MV4-11; assay type: cell-based, human; conditions: Homo sapiens, MV4-11, 72 h; read-out: Anti-proliferative activity GI50 MV4-11
Text: as §2

[7] = test system: KG-1; assay: Cell viability assay, leukemia KG-1; assay type: cell-based; conditions: Homo sapiens, 72 h, read-out: Antiproliferative activity GI50 KG-1
Text: as §2

[8] = biological target: CDK7H (Homo sapiens, UniProt P50613); assay: Kinase assay CDK7H (radiometric profiling service); assay type: biochemical; conditions: for Ki: apparent Ki calculated from Km (ATP) and IC50, read-out: CDK inhibition Ki CDK7H
Chain of CDK7H (P50613 whole entry): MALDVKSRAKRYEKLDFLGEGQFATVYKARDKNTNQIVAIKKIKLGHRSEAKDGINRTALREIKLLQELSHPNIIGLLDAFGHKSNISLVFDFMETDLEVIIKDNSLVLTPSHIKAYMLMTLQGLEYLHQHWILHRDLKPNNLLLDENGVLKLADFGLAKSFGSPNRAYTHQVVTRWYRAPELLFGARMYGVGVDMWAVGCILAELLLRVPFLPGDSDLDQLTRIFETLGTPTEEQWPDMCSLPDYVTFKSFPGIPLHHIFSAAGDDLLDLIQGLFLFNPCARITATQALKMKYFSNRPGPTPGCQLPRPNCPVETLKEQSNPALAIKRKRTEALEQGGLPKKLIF
Chain of CDK7H (P51946 whole entry partner): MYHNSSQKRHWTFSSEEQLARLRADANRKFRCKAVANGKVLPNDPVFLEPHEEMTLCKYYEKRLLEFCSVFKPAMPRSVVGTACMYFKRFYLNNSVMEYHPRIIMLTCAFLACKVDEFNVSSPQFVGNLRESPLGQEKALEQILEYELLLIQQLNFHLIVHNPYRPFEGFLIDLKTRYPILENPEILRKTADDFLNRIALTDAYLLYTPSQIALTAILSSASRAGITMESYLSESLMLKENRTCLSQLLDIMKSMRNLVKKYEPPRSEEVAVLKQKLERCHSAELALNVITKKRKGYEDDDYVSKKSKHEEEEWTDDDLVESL
Chain of CDK7H (P51948 whole entry partner): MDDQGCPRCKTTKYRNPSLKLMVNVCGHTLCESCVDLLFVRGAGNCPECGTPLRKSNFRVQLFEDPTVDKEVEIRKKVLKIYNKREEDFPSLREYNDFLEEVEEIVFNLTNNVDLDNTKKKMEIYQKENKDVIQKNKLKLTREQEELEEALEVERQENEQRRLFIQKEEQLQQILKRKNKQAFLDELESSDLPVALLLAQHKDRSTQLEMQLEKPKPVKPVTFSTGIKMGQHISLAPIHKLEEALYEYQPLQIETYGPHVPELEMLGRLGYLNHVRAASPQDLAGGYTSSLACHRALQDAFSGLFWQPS
Procedure, shortened: as §1

[9] = biological target: T2, CDK9T1 (Homo sapiens, UniProt P50750); assay: Kinase assay CDK9/T1 (radiometric or ADP Glo); assay type: biochemical; conditions: apparent Ki calculated from Km (ATP) and IC50; read-out: CDK inhibition Ki CDK9T1
T2 construct: purchased Eurofins Pharma Discovery or Reaction Biology Corporation (service)
T2 sequence (P50750 whole entry): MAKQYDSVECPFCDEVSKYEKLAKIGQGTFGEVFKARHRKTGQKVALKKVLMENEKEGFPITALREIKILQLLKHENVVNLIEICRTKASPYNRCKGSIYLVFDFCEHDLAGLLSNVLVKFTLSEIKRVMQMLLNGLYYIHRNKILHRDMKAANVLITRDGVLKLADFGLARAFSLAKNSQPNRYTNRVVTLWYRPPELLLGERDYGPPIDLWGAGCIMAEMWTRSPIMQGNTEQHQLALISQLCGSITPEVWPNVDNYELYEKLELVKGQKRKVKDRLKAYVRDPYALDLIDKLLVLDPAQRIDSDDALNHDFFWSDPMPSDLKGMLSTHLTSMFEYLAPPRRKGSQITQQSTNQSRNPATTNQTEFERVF
T2 sequence (O60563 whole entry partner): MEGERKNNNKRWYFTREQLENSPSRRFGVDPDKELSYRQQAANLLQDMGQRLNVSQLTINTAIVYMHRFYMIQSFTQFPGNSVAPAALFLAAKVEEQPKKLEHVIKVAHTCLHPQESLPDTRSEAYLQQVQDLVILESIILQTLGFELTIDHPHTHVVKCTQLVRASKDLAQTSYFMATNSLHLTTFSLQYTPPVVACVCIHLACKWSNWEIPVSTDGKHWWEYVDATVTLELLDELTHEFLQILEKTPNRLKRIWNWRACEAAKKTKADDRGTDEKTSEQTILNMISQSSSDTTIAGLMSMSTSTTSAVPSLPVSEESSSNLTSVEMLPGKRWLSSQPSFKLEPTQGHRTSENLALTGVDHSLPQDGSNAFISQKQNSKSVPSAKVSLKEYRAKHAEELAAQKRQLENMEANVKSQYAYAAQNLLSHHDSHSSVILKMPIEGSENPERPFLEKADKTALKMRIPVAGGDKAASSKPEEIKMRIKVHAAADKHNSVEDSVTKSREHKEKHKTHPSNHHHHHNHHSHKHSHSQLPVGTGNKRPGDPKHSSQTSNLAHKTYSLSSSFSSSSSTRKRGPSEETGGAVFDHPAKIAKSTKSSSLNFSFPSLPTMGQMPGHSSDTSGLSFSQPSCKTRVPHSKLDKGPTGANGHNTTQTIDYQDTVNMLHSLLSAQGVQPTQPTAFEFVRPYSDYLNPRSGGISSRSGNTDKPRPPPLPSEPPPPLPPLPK
Procedure, shortened: (§3)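 Radiometric inhibition data for CDKs came from Eurofins or Reaction Biology profiling services; CDK4/D1 was also run in-house by ADP-Glo in […] pH 7.5, 20 mM MgCl2, 0.4 mM DTT, 0.1 mg/ml BSA with RB-CTF substrate, 40 min at 37 °C after ATP start. Ten-point 1:3 dilutions (10 μM–0.5 nM); four-parameter IC50, Ki from IC50 and ATP Km.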

[10] = biological target: T3, CDK6D3 (Homo sapiens, UniProt Q00534); assay: Kinase assay CDK6/D3 (radiometric or ADP Glo); assay type: biochemical; conditions: apparent Ki calculated from Km (ATP) and IC50; read-out: CDK inhibition Ki CDK6D3
T3 construct: purchased Eurofins Pharma Discovery or Reaction Biology Corporation (service)
T3 sequence (Q00534 whole entry): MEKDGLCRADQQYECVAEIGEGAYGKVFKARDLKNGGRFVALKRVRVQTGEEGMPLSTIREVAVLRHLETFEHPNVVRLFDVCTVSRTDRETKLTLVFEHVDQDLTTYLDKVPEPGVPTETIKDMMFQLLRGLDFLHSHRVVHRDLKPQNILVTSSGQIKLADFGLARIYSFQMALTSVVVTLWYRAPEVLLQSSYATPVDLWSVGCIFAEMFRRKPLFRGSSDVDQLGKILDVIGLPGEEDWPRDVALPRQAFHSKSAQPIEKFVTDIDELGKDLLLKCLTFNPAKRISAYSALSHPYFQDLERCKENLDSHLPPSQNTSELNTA
T3 sequence (P30281 whole entry partner): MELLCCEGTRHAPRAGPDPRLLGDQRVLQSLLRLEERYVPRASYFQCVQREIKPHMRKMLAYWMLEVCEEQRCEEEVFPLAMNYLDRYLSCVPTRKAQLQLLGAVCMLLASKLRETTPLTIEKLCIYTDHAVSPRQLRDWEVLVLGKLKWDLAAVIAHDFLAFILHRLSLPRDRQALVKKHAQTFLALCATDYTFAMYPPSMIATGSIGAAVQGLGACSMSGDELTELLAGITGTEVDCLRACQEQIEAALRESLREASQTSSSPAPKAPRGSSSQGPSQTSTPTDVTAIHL
Procedure, shortened: as §3

[11] = test system: D458; assay: Cell viability assay, medulloblastoma D458; assay type: cell-based; conditions: Homo sapiens; 72 h, Medulloblastoma; read-out: Antiproliferative activity GI50 D458
Text: as §2

[12] = test system: D283; assay: Cell viability assay, medulloblastoma D283; assay type: cell-based; conditions: Homo sapiens, D283; 72 h, Medulloblastoma; read-out: Antiproliferative activity GI50 D283
Text: as §2

[13] = test system: A2780; assay: Cell viability assay, ovarian A2780; assay type: cell-based; conditions: Homo sapiens, A2780; 72 h, Ovarian; read-out: Antiproliferative activity GI50 A2780
Text: as §2

[14] = Pharmacokinetics in rat; assay type: in vivo, Wistar Rat; conditions: po; for bioavailability: vs IV dosing, read-out: Oral bioavailability (F %)
Experimental: (§4) For pharmacokinetic measurements, healthy male adult Balb/C mice (weighing 20-25 g) or Wistar Rat (weighing 250-350 g) were split into weight matched groups of 3 per group. […] Blood samples were collected from animals by jugular vein cannula (rats) or under anaesthesia by cardiac puncture (mice) at time zero and at intervals up to 24 h. Harvested blood was centrifuged at 7000×G for 2 minutes, and the plasma aspirated and frozen at −20° C. until analysis. Quantitative analysis of compound in plasma was carried out using LC-MS/MS methods. Pharmacokinetic data derived using Phoenix WinNonlin 6.4® non-compartmental analysis. Oral bioavailability (% F) was calculated by taking the ratio of dose-normalised AUC values from oral versus parenteral (IV) dosing.

[15] = test system: MV4-11 cells; assay: Cell cycle analysis (PI staining, flow cytometry); assay type: cell-based, human; conditions: MV4-11 cells treated for 24 h, FIG. 1
Experimental: Cell cycle analysis and apoptosis studies were performed as described previously (Diab S. et al. CheMedChem 9:962-972, 2014; Teo T., et al. Cancer Letters, 357(2):612-623, 2015). Briefly, human acute myeloid leukaemia MV4-11 cells (1×10^5) were seeded and incubated overnight at 37° C. and 5% CO2. Cells were centrifuged at 300×g for 5 min upon treatment with inhibitor. Cell pellets were collected and fixed with 70% ethanol on ice for 15 min, followed by centrifugation at 300×g for 5 min. The collected pellets were incubated with staining solution (50 μg/mL PI, 0.1 mg/mL ribonuclease A, 0.05% Triton X-100) at 37° C. for an hour and analysed with Gallios flow cytometer. 1×10^5 of the remaining cells were then used in an apoptotic assay with Annexin V-FITC Apoptosis Detection Kit. The samples were analysed by FACS within one hour of staining. Data were analysed using Kaluza v1.2.
In an example shown in FIG. 1, MV4-11 cells were treated with compound 60 for 24 hat the concentrations shown.

[16] = Pharmacokinetics in mice; assay type: in vivo, Balb/C mice; conditions: po, 10 mg/kg in mice
Experimental: as §4

[17] = male, Wistar, plasma, 20 mg/kg in rat
[18] = male, Wistar, plasma, 40 mg/kg in rat

Chain of CDK1B (P06493 whole entry): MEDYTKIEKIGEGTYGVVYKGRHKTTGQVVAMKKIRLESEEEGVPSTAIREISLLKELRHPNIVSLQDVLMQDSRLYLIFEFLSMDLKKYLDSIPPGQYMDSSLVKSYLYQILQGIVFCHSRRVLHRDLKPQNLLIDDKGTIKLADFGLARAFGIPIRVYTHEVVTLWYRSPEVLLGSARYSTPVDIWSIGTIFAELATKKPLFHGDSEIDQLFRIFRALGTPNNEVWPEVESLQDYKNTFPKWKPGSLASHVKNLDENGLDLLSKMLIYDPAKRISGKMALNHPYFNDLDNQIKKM
Chain of CDK1B (P14635 whole entry partner): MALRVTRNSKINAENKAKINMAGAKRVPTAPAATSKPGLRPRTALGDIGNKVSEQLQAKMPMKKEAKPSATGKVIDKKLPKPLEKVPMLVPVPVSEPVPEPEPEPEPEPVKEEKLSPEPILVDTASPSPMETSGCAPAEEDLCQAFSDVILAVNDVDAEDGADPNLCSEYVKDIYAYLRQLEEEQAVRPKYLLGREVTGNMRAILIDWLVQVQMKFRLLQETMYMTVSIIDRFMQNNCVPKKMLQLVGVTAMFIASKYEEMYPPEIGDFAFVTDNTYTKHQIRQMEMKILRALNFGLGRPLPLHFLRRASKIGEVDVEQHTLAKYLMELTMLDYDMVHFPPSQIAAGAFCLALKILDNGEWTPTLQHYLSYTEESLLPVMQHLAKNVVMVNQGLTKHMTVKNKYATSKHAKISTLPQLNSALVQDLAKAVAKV

| Ki [1] [nM] | GI50 [2] [nM] | Ki [3] [nM] | GI50 [4] [nM] | Ki [5] [nM] | GI50 [6] [nM] | GI50 [7] [nM] | Ki [8] [nM] | Ki [9] [nM] | Ki [10] [nM] | GI50 [11] [nM] | GI50 [12] [nM] | GI50 [13] [nM] | Structure (SMILES) | further results |
| --- | --- | --- | --- | --- | --- | --- | --- | --- | --- | --- | --- | --- | --- | --- |
| > 5000 | 293 ± 28 | 10 | 3320 ± 576 | 1800 | 591 ± 83 | 47 ± 15 | > 5000 | > 5000 | 1670 | – | – | – | CCc1nc(C)c(-c2ccnc(Nc3ccc(N4CCN(CC)CC4)cn3)n2)s1 [Compound 9, 4-(2-ethyl-4-methylthiazol-5-yl)-N-(5-(4-ethylpiperazin-1-yl)pyridin-2-yl)pyrimidin-2-amine] | – |
| > 5000 | – | 2 | 381 ± 96 | 365 | 11 ± 4 | – | > 5000 | 1910 | 10 | 645 ± 97 | 489 ± 22 | 94 ± 1 | CNc1nc(C)c(-c2nc(Nc3ccc(N4CCN(C)CC4)cn3)ncc2F)s1 [Compound 31, 5-(5-fluoro-2-((5-(4-methylpiperazin-1-yl)pyridin-2-yl)amino)pyrimidin-4-yl)-N,4-dimethylthiazol-2-amine] | – |
| > 5000 | 408 ± 25 | – | 813 ± 22 | 4470 | 174 ± 22 | 112 ± 45 | > 5000 | > 5000 | – | – | – | – | CNc1nc(C)c(-c2nc(Nc3ccc(N4CCN(C(C)=O)CC4)cn3)ncc2C#N)s1 [Compound 34, 2-((5-(4-acetylpiperazin-1-yl)pyridin-2-yl)amino)-4-(4-methyl-2-(methylamino)thiazol-5-yl)pyrimidine-5-carbonitrile] | AUC [14, 17]: 10.2 µM·h; Cmax [14, 17]: 600 nM; half-life [14, 17]: 4.6 h; bioavailability [14, 17]: 39% |
| > 5000 | 98 ± 12 | 2 | 638 ± 42 | 1390 | 73 ± 10 | 5 ± 4 | > 5000 | 4360 | 55 | – | – | – | Cc1nc(N(C)C)sc1-c1nc(Nc2ccc(N3CCN(C)CC3)cn2)ncc1F [Compound 46, 5-(5-fluoro-2-((5-(4-methylpiperazin-1-yl)pyridin-2-yl)amino)pyrimidin-4-yl)-N,N,4-trimethylthiazol-2-amine] | – |
| > 5000 | 76 ± 8 | 2 | 349 ± 36 | 3340 | 107 ± 22 | 6 ± 1 | > 5000 | > 5000 | 279 | – | – | – | CNc1nc(C)c(-c2nc(Nc3ccc(N4CCC(N(C)C)CC4)cn3)ncc2F)s1 [Compound 47, 5-(2-((5-(4-(dimethylamino)piperidin-1-yl)pyridin-2-yl)amino)-5-fluoropyrimidin-4-yl)-N,4-dimethylthiazol-2-amine] | – |
| > 5000 | – | – | 70 ± 13 | > 5000 | 23 ± 24 | – | – | – | – | 321 ± 68 | 124 ± 20 | 81 ± 1 | Cc1nc(NC2CCCC2)sc1-c1ccnc(Nc2ccc(N3CCNCC3)cn2)n1 [Compound 60, N-cyclopentyl-4-methyl-5-(2-((5-(piperazin-1-yl)pyridin-2-yl)amino)pyrimidin-4-yl)thiazol-2-amine] | Cell cycle effect [15]: arrested cells in the G1 phase of the cell-cycle in a dose-dependent manner; AUC [14, 18]: 6.6 µM·h; Cmax [14, 18]: 500 nM; half-life [14, 18]: 16.4 h; bioavailability [14, 18]: 51% |
| > 5000 | – | 5 | 3680 ± 285 | 2940 | 335 ± 184 | – | > 5000 | > 5000 | 29 | – | – | – | Cc1nc(NC2CCCC2)sc1-c1ccnc(Nc2ccc(N3CCOCC3)cn2)n1 [Compound 71, N-cyclopentyl-4-methyl-5-(2-((5-morpholinopyridin-2-yl)amino)pyrimidin-4-yl)thiazol-2-amine] | AUC ([16]; male, Balb/C, mouse, plasma): 5.9 µM·h; half-life ([16]; male, Balb/C, mouse, plasma): 5 h; bioavailability ([16]; male, Balb/C, mouse, plasma, vs IV dosing, read-out: Oral bioavailability (F %)): 100%; Cmax [16]: 1600 nM; AUC [14, 17]: 15.9 µM·h; bioavailability [14, 17]: 27%; Cmax ([14]; 20 mg/kg in rat): 1400 nM; t1/2 ([14]; 20 mg/kg in rat): 2.8 h |
| > 5000 | – | 2 | 3360 ± 286 | 476 | 20 ± 15 | – | > 5000 | 1800 | 10 | 617 ± 112 | 358 ± 100 | 72 ± 20 | Cc1nc(N(C)C2CCCC2)sc1-c1ccnc(Nc2ccc(N3CCN(C)CC3)cn2)n1 [Compound 86, N-cyclopentyl-N,4-dimethyl-5-(2-((5-(4-methylpiperazin-1-yl)pyridin-2-yl)amino)pyrimidin-4-yl)thiazol-2-amine] | – |
| – | – | 27 | 3330 ± 864 | – | 752 ± 33 | – | – | 950 | 155 | – | – | – | Cc1[nH]c(=O)sc1-c1ccnc(Nc2ccc(N3CCN(C)CC3)cn2)n1 [Compound 92, 4-methyl-5-(2-((5-(4-methylpiperazin-1-yl)pyridin-2-yl)amino)pyrimidin-4-yl)thiazol-2(3H)-one] | remaining activity at 10 µM ([1]; compound at 10 μM, read-out: % remaining enzymatic activity at 10 μM CDK1B): 51%; melting point: 228 to 230 °C; remaining activity at 10 µM ([5]; compound at 10 μM, read-out: % remaining enzymatic activity at 10 μM CDK 2A): 61%; remaining activity at 10 µM ([8]; compound at 10 μM, read-out: % remaining enzymatic activity at 10 μM CDK7H): 24% |

Reference: USRE49850E1, “N-(pyridin-2-yl)-4-(thiazol-5-yl)pyrimidin-2-amine derivatives as therapeutic compounds” (AUCENTRA THERAPEUTICS PTY LTD, priority 2015, dated 2024)
